From paper PMC11013284, “Chemoselective Synthesis and Anti-Kinetoplastidal Properties of 2,6-Diaryl-4H-tetrahydro-thiopyran-4-one S-Oxides: Their Interplay in a Cascade of Redox Reactions from Diarylideneacetones” (Molecules, 2024)
Where two headings read alike, the source gives them in different places.

What was measured:
[1] = tested on: macrophages
[2] = tested on: L. infantum (MHOM/MA(BE)/67) amastigotes in primary peritoneal mouse macrophages; test: L. infantum intramacrophage amastigote assay (microscopic burden); type: cell-based, Leishmania infantum; conditions: 5 days, mouse macrophages as host
Protocol: L. infantum (MHOM/MA(BE)/67 strain) amastigote were incubated for 5 days in 96-well plates with five concentrations of compound (64, 16, 4, 1, and 0.25 μM). Primary peritoneal mouse macrophages were used as host cells. Parasite burdens (i.e., the number of amastigotes per macrophage) were microscopically assessed. The results were expressed as a percentage reduction in parasite burden compared to untreated control wells, and an IC50 was calculated.

[3] = tested on: WT LV9 L. donovani intramacrophage amastigotes; test: L. donovani intramacrophage amastigote assay; type: cell-based, Leishmania donovani; conditions: for IC99 ± SD LV9 intramacrophage amastigotes / IC90: Table S6; for IC90: read-out: IC90 ± SD LV9 intramacrophage amastigotes
[4] = tested on: Trypanosoma cruzi (Tulahuen CL2 β-galactosidase) amastigotes in hMRC-5SV2 cells; test: T. cruzi intracellular amastigote assay (β-galactosidase/CPRG); type: cell-based; conditions: intracellular amastigotes, 7 days, read-out: IC50 T. cruzi intramacrophage amastigotes (converted)
Protocol: A nifurtimox-sensitive strain (Tulahuen CL2 β-galactosidase) in human lung fibroblast hMRC-5SV2 cells was incubated for 7 days in 96-well plates with five concentrations of compound (64, 16, 4, 1, and 0.25 μM). The parasitic burden was evaluated through the activity of the enzyme β-galactosidase on a specific chlorophenol red ß-D-galactopyranoside (CPRG) substrate. Live parasites converted the yellow-orange CPRG substrate into the red chromophore chlorophenol red, yielding a dark-red solution, which could be quantitatively measured at 540 nm after 4 h of incubation at 37 °C. The results were expressed as a percentage reduction in parasite growth/viability compared to control wells, and an IC50 was calculated.

[5] = tested on: L. donovani LV9 axenic amastigotes; test: L. donovani axenic amastigote assay (SYBR green I); type: cell-based, Leishmania donovani; conditions: for IC50: read-out: IC50 ± SD L. donovani axenic amastigotes; for IC99 ± SD LV9 axenic amastigotes / IC90: Table S6; for IC90: read-out: IC90 ± SD LV9 axenic amastigotes
Protocol: L. donovani amastigote forms were suspended to yield 10^7 cells/mL. The final compound concentrations used were 100 µM, 10 µM, 1 µM, 500 nM, and 50 nM. Duplicates were used for each concentration. Cultures were incubated at 37 °C for 72 h in the dark and under a 5% CO2 atmosphere; then, the viability of the amastigotes was assessed using the SYBR® green I (Invitrogen, France) incorporation method. Parasite growth was determined by using SYBR® Green I, a dye with marked fluorescence enhancement upon contact with parasite DNA. Parasites were lysed following Direct PCReCell Genotyping without DNA isolation protocol (Euromedex, Souffelweyersheim, France). A total of […] of SYBR Green I was added to each well, and the contents were mixed. Fluorescence was measured with Mastercylcer® ep realplex (Eppendorf, Montesson, France). The fluorescence obtained was compared to those from the range obtained with different parasite densities.

[6] = tested on: Trypanosoma brucei brucei trypomastigotes, suramin-sensitive strain (Squib 427); test: T. b. brucei growth/viability assay (resazurin); type: cell-based; conditions: 3 days
Protocol: After 3 days, parasite growth was assessed fluorimetrically following the addition of resazurin. After 24 h at 37 °C, fluorescence was measured (λex = 550 nm, λem = 590 nm). The results were expressed as a percentage reduction in parasite growth/viability compared to control wells, and a 50% inhibitory concentration (IC50) was calculated.

[7] = tested on: human diploid embryonic lung fibroblast hMRC-5SV2 cells; test: in vitro
Protocol: (§1) The cytotoxicity of compounds was evaluated toward human diploid embryonic lung fibroblast hMRC-5SV2 cells, derived from fetal lung tissue and first described in 1970. hMRC-5SV2 cells were cultured in 96-well plates with five concentrations of the compound (64, 16, 4, 1, and 0.25 μM). After 3 days of incubation, the cell viability was assessed fluorimetrically after the addition of resazurin, and fluorescence was measured (λex = 550 nm, λem = 590 nm). The results were expressed as a percentage reduction in cell growth/viability compared to control wells, and a 50% cytotoxic concentration (CC50) was calculated. The reference cytotoxic drugs were tamoxifen or ivermectin. Additionally, toxicity toward mouse macrophages was qualitatively observed. Three concentrations were included (64, 16, and 4 µM), and the range of toxicity was ranked from the least toxic to the most toxic compound.

[8] = tested on: WT LV9 L. donovani promastigotes; test: L. donovani promastigote assay (MTT), wild type; type: cell-based; conditions: Leishmania donovani, 72 h, 3 days; read-out: IC50 ± SD WT LV9 L. donovani promastigotes
Protocol: (§2) L. donovani promastigote forms from the logarithmic phase culture were suspended to yield 10^6 cells/mL. Miltefosine was used as the antileishmanial reference compound. Compounds to be evaluated and miltefosine were distributed in the plates by making a serial dilution. The final concentrations used were between 100 µM and 50 nM. Triplicates were used for each concentration. After a 3-day incubation period at 27 °C in the dark and under a 5% CO2 atmosphere, the viability of the promastigotes was assessed using the tetrazolium-dye (MTT) colorimetric method, which measures the reduction of a tetrazolium component (MTT) into an insoluble formazan product by the mitochondria of viable cells. After the incubation of the cells with the MTT reagent, a detergent solution (Triton X100, HCl) was added to lyse the cells and dissolve the colored crystals. The absorbance at 570 nm, directly proportional to the number of viable cells, was measured using an ELISA plate reader. The results were expressed as the concentrations inhibiting parasite growth by 50% (IC50) ± SD after a 3-day incubation period.

[9] = tested on: murine macrophages; test: Qualitative toxicity toward mouse macrophages; conditions: concentration at which toxicity was observed; 64, 16 and 4 µM tested
Protocol: as §1

[10] = in vitro; conditions: human, CC50 hMRC-5 (cytotoxicity)
Protocol: as §1

[11] = tested on: HePC-R L. donovani promastigotes; test: L. donovani promastigote assay, miltefosine-resistant strain; type: cell-based; conditions: Leishmania donovani, read-out: IC50 ± SD HePC-R L. donovani promastigotes
Protocol: as §2

[12] = Solubility observations (crystals in assay, insolubility in solvents); type: physicochemical; conditions: for solubility (observation): almost all types of solvent, even at very low concentrations
[13] = tested on: Trypanosoma brucei brucei trypomastigotes, suramin-sensitive strain (Squib 427); design: method as in earlier work; conditions: Table 1, preliminary study; read-out: IC50 T. b. brucei; cited from earlier work
[14] = tested on: Trypanosoma cruzi (Tulahuen CL2 β-galactosidase) amastigotes in hMRC-5SV2 cells; design: method as in earlier work; conditions: Table 1, preliminary study; read-out: IC50 T. cruzi; cited from earlier work
[15] = Leishmania infantum, Macrophage, 120 h
[16] = Leishmania donovani, WT LV9, ± SD in Tables S5/S6, read-out: IC50 L. donovani intramacrophage amastigotes
[17] = Trypanosoma cruzi, TULAHUEN, 168 h
[18] = noted in L. donovani assay, Table S5

For CN(C)c1ccc([C@H]2CC(=O)C[C@H](c3ccc(N(C)C)cc3)S2)cc1 (racemic) [2u], the “observed macrophage death / lysis observed at” value ([1]; bracketed value after the intramacrophage IC50 (Table S5), Table S6) was 100 µM, the IC50 [2] was 43.1 µM and the “IC99 ± SD LV9 intramacrophage amastigotes” value [3] was 7.1 ± 15.9 µM. For the same molecule, the IC90 [3] was 5.6 ± 12.5 µM, the IC50 ([3]; WT LV9, ± SD in Tables S5/S6, read-out: IC50 L. donovani intramacrophage amastigotes) was 4.5 ± 10 µM and the IC50 [4] was 2.5 µM. The IC50 ([5]; LV9) was 57.5 ± 10.2 µM, the “IC99 ± SD LV9 axenic amastigotes” value [5] was 91.1 ± 16.2 µM and the IC90 [5] was 71.7 ± 12.7 µM. The IC50 [6] was 1.5 µM and the CC50 [7] was 5 µM.
With O=C(/C=C/c1ccccc1Cl)/C=C/c1ccccc1Cl [1e] the “observed macrophage death / lysis observed at” value [1] was greater than 37.5 µM, the IC50 [2, 15] was 6.8 µM and the IC50 [8] was 3.6 ± 0.1 µM. The “Toxicity (T) observed toward murine macrophages” value (“Toxicity” for short) [9] was “T2 (T2 = 16)”, the IC50 [3, 16] was 7.4 ± 1.7 µM and the IC50 [4, 17] was 12 µM. It also gave an IC50 ([5]; Leishmania donovani, LV9) greater than 200 µM, an IC50 ([6]; Trypanosoma brucei, 72 h) of 7.8 µM and a CC50 at 3 days [10] of 29.4 µM. It also gave an IC50 [11] of 7.8 ± 1 µM.
With O=C(/C=C/c1ccc(Cl)cc1)/C=C/c1ccc(Cl)cc1 [1f] the “observed macrophage death / lysis observed at” value [1] was greater than 50 µM, the IC50 [2, 15] was greater than 60 µM and the IC50 [8] was 6.7 ± 0.6 µM. For the same molecule, the “presence of crystals (asterisk mark)” value [12, 18] was “* (presence of crystals at > 50 µM)”, the IC50 [3, 16] was 6.3 ± 1.9 µM and the IC50 [4, 17] was 35.6 µM. It also gave an IC50 ([5]; Leishmania donovani, LV9) greater than 200 µM, an IC50 ([6]; Trypanosoma brucei, 72 h) of 2.1 µM and a CC50 at 3 days [10] of 42.4 µM. The IC50 [11] was 3.7 ± 0.2 µM.
In the case of O=C(/C=C/c1c(Cl)cccc1Cl)/C=C/c1c(Cl)cccc1Cl [1h], the “observed macrophage death / lysis observed at” value [1] is reported as greater than 6.2 µM, the IC50 [2, 15] is reported as 32.5 µM and the “Toxicity” value [9] is reported as “T1 (T1 = 64)”. For the same molecule, the “presence of crystals, concentration range” value [12, 18] was 0.8 to 200 µM, the IC50 [4, 17] was 39.5 µM and the IC50 ([6]; Trypanosoma brucei, 72 h) was greater than 64 µM. For the same molecule, the CC50 at 3 days [10] was greater than 64 µM.
In the case of COc1cc(Br)c(O)c(/C=C/C(=O)/C=C/c2cc(OC)cc(Br)c2O)c1 [1p], the IC50 [2, 15] is given as 1 µM, the IC50 [13] is given as no more than 0.3 µM and the “Toxicity” value [9] is given as “T1 (T1 = 64)”. The IC50 [4, 17] was no more than 0.3 µM, the IC50 ([6]; Trypanosoma brucei, 72 h) was no more than 0.3 µM and the CC50 at 3 days [10] was 1 µM. The IC50 [14] was no more than 0.3 µM.
With N#Cc1ccc(/C=C/C(=O)/C=C/c2ccc(C#N)cc2)cc1 [1t] the “observed macrophage death / lysis observed at” value [1] was greater than 100 µM, the IC50 [2, 15] was 5.1 µM and the IC50 [8] was 6.6 ± 0.6 µM. The “Toxicity” value [9] was “T2 (T2 = 16)”, the IC50 [3, 16] was greater than 50 µM and the IC50 [4, 17] was 11.9 µM. For the same molecule, the “IC50 ± SD L. donovani axenic amastigotes” value ([5]; LV9) was “T at 6.25-200 µM”, the IC50 ([6]; Trypanosoma brucei, 72 h) was 1.5 µM and the CC50 at 3 days [10] was 57.1 µM. The IC50 [11] was 2.4 ± 0.1 µM.
In the case of CN(C)c1ccc(/C=C/C(=O)/C=C/c2ccc(N(C)C)cc2)cc1 [1u], the “observed macrophage death / lysis observed at” value [1] is reported as 200 µM, the IC50 [2, 15] is reported as greater than 64 µM and the IC50 [3, 16] is reported as 6.3 ± 0.8 µM. For the same molecule, the IC90 ([3]; Leishmania donovani) was 7.8 ± 1 µM, the “IC99 ± SD LV9 intramacrophage amastigotes” value [3] was 9.9 ± 1.3 µM and the IC50 [4, 17] was 36.9 µM. The IC50 ([5]; Leishmania donovani, LV9) was 8.7 ± 0.6 µM, the IC90 ([5]; Leishmania donovani) was 64.2 ± 0.7 µM and the “IC99 ± SD LV9 axenic amastigotes” value [5] was 567.3 ± 0.9 µM. It also gave an IC50 ([6]; Trypanosoma brucei, 72 h) of 0.8 µM and a CC50 at 3 days [10] of 62.3 µM.
In the case of Cl.Cl.O=C(/C=C/c1cccnc1)/C=C/c1cccnc1 [1x], the IC50 [2, 15] is listed as 1 µM, the IC50 [13] is listed as no more than 0.3 µM and the “Toxicity” value [9] is listed as “T1 (T1 = 64)”. It also gave an IC50 [4, 17] of 0.9 µM, an IC50 ([6]; Trypanosoma brucei, 72 h) of no more than 0.3 µM and a CC50 at 3 days [10] of 1.1 µM.
In the case of COc1ccc(C2CC(=O)CC(c3ccc(OC)cc3)S2(=O)=O)cc1 (stereo not drawn) [4′d, cis-2,6-Di-(p-anisyl)-4H-tetrahydrothiopyran-4-one 1,1-dioxide], the IC50 [2] is reported as 20.3 µM, the “Toxicity” value [9] is reported as “T1 (T1 = 64)” and the “solubility (observation)” value [12] is reported as “insolubility”. The “solubility (observation)” value ([12]; listed as 4’d) was “Solubility issues”, the IC50 [4] was 34.4 µM and the IC50 [6] was 2.1 µM. For the same molecule, the CC50 ([7]; human, 3 days) was no less than 64 µM.
C[C@@H]1[C@H](O)[C@@H](C)/C=C/C=C/C=C/C=C/C=C/C=C/C=C/[C@H](O[C@@H]2O[C@H](C)[C@@H](O)[C@H](N)[C@@H]2O)C[C@@H]2O[C@](O)(C[C@@H](O)C[C@@H](O)[C@H](O)CC[C@@H](O)C[C@@H](O)CC(=O)O[C@H]1C)C[C@H](O)[C@H]2C(=O)O [Amphotericin B, reference compound] showed an IC50 [8] of 0.04 ± 0.01 µM, an IC50 [3, 16] of 0.04 µM and an IC50 ([3]; Leishmania donovani, as worded in footnote a of Table S5, value stands in a middle column of the table, read-out: IC50 against leishmanial WT and HePC-R intramacrophagic amastigotes) of 0.08 ± 0.024 µM. The IC90 ([3]; Leishmania donovani) was 0.05 µM, the “IC99 ± SD LV9 intramacrophage amastigotes” value [3] was 0.07 µM and the IC50 ([5]; Leishmania donovani, LV9) was 0.024 µM. The IC90 ([5]; Leishmania donovani) was 0.03 µM, the “IC99 ± SD LV9 axenic amastigotes” value [5] was 0.039 µM and the CC50 at 3 days [10] was greater than 64 µM.
